In patent US20150374784A1, “COMPOSITIONS AND METHODS FOR REDUCING GERM CELL DEATH” (Los Angeles Biomedical Research Institute at Harbor-UCLA …, priority 2014, published 2015):

What was measured:
ovaries = type: in vivo; conditions: day 14; HNG 5 mg/kg/day IP; CP 100 mg/Kg single IP
Description: A mouse mammary cancer model was used which utilizes 4T1 cells transfected with the luciferase gene. Growth and size of 4T1 mammary tumors were detected by bioluminescence imaging (IVIS Luminia II, Perkin Elmer, Waltham, Mass.). Mice (n=5 to 7 per group) were inoculated with 1×10^6 4 T1 cells into the right third mammary gland, and 7 days later they were left untreated or treated with HNG (5 mg/kg/day IP), CP (100 mg/Kg single IP) or HNG+CP for 14 days. Animals were sacrificed and both ovaries were removed from each mouse on day 14 after the start of treatment. Serial 5-micrometer sections were made. Every 5th section was examined and the number of primordial, primary, and secondary follicles counted (Kim S Y, et al., 2013; Bristol-Gould S K, et al., 2006; Roti Roti E C, et al., 2012). In addition, TUNEL staining for apoptotic cells and oocytes was quantified (Perez G I, et al., 1997; Ben-Aharon I, et al., 2010).

germ cells = assay: HNG on CP-induced germ cell apoptosis in mice, 24 hours (Example 6); type: in vivo, mouse; conditions: CP 200 mg/kg/BW IP, HNG 5 mg/kg/BW IP
Description: To examine the protective effects of HNG on germ cells, adult mice were treated with vehicle (control); HNG (5 mg/kg/BW, intraperitoneal injection IP); CP (200 mg/kg/BW, IP); and CP+HNG for 24 hours.

[1] = tested on: phosphorylated-AMPK (p-AMPK); assay: Immunohistochemistry of lung metastases: p-AMPK; type: in vivo, mouse; conditions: mean±SD; CP 200 mg/kg single IP; HNG 5 mg/kg daily IP 14 days
Description: Methods: Adult male mouse (n=5/group) were seeded with mouse B16 melanoma cells (100,000 cells/mouse) via tail vein on day 1. One week after melanoma cell inoculation, mice were treated either with a single intraperitoneal injection (IP) of CP (200 mg/kg), or daily IP injections of HNG (5 mg/kg), or both for 14 days. Mice were sacrificed at day 21 and lungs were fixed in formaldehyde. Immunohistochemistry was performed on lung metastases with antibodies against phosphorylated-AMPK (p-AMPK), p-4E-BP1 (downstream effector of mTOR) and Ki-67 antigen (a marker of cell proliferation).

Leydig cells = assay: Testosterone of cultured Leydig cells treated with ketoconazole; type: cell-based, rat; conditions: HN 10 mcg/ml + KTZ 10 mcg/ml, 4 hours
Description: Leydig cells were isolated based on a previously described procedure (Gao, et al., 1996; Klinefelter, et al., 1987; Salva, et al., 2001). Briefly, the testes were decapsulated, and then dissociated with collagenase, dispase, DNase and shaking for 15 min at 34° C. The seminiferous tubules were removed by filtration through 40 μm nylon mesh (BD Falcon, Franklin Lakes, N.J.). Leydig cells were then harvested after centrifugation and purified using a Percoll gradient (GE Healthcare, Uppsala, Sweden) and centrifugation (60 minutes at 20,000 g at 4° C.). Enriched Leydig cells were harvested at densities between 1.065 (red) and 1.075 (blue) g/cm^3 from the percoll gradient. These Leydig cells were washed by diluting the percoll and excluding residual germ cells and other cells using a BSA density gradient with centrifugation. The purity of the Leydig cells was >90%, as determined by histochemical staining for 3β-hydroxysteroid dehydrogenase. The cell viability, as assessed by trypan blue exclusion, was greater than 90%. […]
Testosterone concentrations in plasma, testes, and culture medium were measured by a previously described radioimmunoassay (Lue, et al., 2010) with a minimal detection limit of 0.1 ng/ml. […]

Molecule | ovarian follicles in representative sections (ovaries) | germ cell apoptosis (apoptotic index) (germ cells) | percent p-AMPK positive cells in metastatic lung melanoma [1] [%] | KTZ induced decrease in testosterone production by Leydig cells (Leydig cells)
O=P1(N(CCCl)CCCl)NCCCO1 (stereo not shown) [CP, cyclophosphamide monohydrate] | have less secondary, but more atretic follicles | significantly increased germ cell apoptosis in all stages of spermatogenesis | 11.3±15.6 | –
MAPRGFSCLLLLTSEIDLPVKRRA [HN, 24-amino acid mitochondrial derived peptide] | – | – | – | did not salvage the KTZ induced decrease in testosterone production
